Counter-ions that a name gives are not always drawn. Like-named read-outs stand apart in the source and are kept apart here.
Columns and labels:
[1] = in vitro; conditions: human
[2] = test system: EBOV minigenome activity; assay: cells; conditions: Zaire ebolavirus, HEK-293T, 24 h
[3] = test system: EBOV minigenome activity
[4] = test system: EBOV minigenome activity; assay: microbe, parasite or virus in culture; format: cell-based, Ebola virus
[5] = test system: HEK293T cells
[6] = test system: EBOV-GFP; format: cell-based, Ebola virus
[7] = test system: Vero E6 cells
[8] = test system: EBOV minigenome activity; format: cell-based, Ebola virus

## Nc1ncn([C@@H]2O[C@H](CO)[C@@H](O)[C@H]2O)c(=O)n1 [azacitidine]
[1]
  CC50: > 50 µM
[2]
  IC50: 4010 nM
[3]
  SI (CC50/IC50): >12.466
[4]
  % inhibition in screen: 76.9%

## C[C@@]12C(=O)OC(=O)[C@]1(C)[C@H]1CC[C@@H]2O1 [cantharidin]
[1]
  CC50: > 50 µM
[2]
  IC50: 11300 nM
[3]
  IC50: 11.3 µM
  SI (CC50/IC50): >4.415
[4]
  % inhibition in screen: 87.3%

## O=c1[nH]cc(F)c(=O)[nH]1 [fluorouracil]
[1]
  CC50: > 50 µM
[2]
  IC50: > 50000 nM

## CO[C@H]1C=C[C@@]23c4cc5c(cc4CN(C[C@@H]2O)[C@H]3C1)OCO5 [crinamine]
[5]
  CC50: > 50 µM
[3]
  IC50: 3.79 µM
  SI (CC50/IC50): >13.196
[4]
  % inhibition in screen: 91.5%

## O=c1cnn([C@@H]2O[C@H](CO)[C@@H](O)[C@H]2O)c(=O)[nH]1 [6-Azauridine]
[4]; Zaire ebolavirus, 24 h, read-out: inhibition of minigenome activity (positive control)
  inhibition at 7 µM: ~70%

## C[C@]12CC[C@H]3[C@@H](CC[C@]4(O)C[C@@H](O)CC[C@]34C=O)[C@@]1(O)CC[C@@H]2C1=CC(=O)OC1 [strophanthidin]
[1]
  CC50: 0.491 µM
[2]
  IC50: 1160 nM
[3]
  SI (CC50/IC50): 0.423
[4]
  % inhibition in screen: 100.0%

## C[C@@H]1C[C@@H]([C@H](O)CC2CC(=O)NC(=O)C2)C(=O)[C@@H](C)C1 [cycloheximide]
[1]
  CC50: > 50 µM
[2]
  IC50: 608 nM
[6]
  reduction of EBOV replication (EBOV-GFP): 96%
[7]
  cytotoxicity: cytotoxic at higher concentrations
[4]
  % inhibition in screen: 97.9%

## CC(=O)Oc1c2c(c(CC=C(C)C)c3c1C(=O)C1=C[C@@H]4CC5C(C)(C)OC(C/C=C(\C)C(=O)O)(C4=O)[C@@]15O3)OC(C)(CCC=C(C)C)C=C2 (stereo partly drawn) [acetyl isogambogic acid]
[1]
  CC50: 2.89 µM
[2]
  IC50: 2940 nM
[3]
  SI (CC50/IC50): 0.983
[4]
  % inhibition in screen: 99.0%

## COc1ccc(C[C@H](N)C(=O)N[C@H]2[C@@H](O)[C@H](n3cnc4c(N(C)C)ncnc43)O[C@@H]2CO)cc1 [puromycin hydrochloride]
[1]
  CC50: 3.59 µM
[2]
  IC50: 889 nM
[3]
  SI (CC50/IC50): 4.043
[4]
  % inhibition in screen: 99.7%

## CC(=O)O[C@H]1C[C@H](O[C@H]2[C@@H](O)C[C@H](O[C@H]3[C@@H](O)C[C@H](O[C@H]4CC[C@@]5(C)[C@H](CC[C@@H]6[C@@H]5C[C@@H](O)[C@]5(C)[C@@H](C7=CC(=O)OC7)CC[C@]65O)C4)O[C@@H]3C)O[C@@H]2C)O[C@H](C)[C@H]1O[C@@H]1O[C@H](CO)[C@@H](O)[C@H](O)[C@H]1O [lanatoside C]
[1]
  CC50: 0.177 µM
[2]
  IC50: 255 nM
[3]
  SI (CC50/IC50): 0.694
[4]
  % inhibition in screen: 100.0%

## CN(Cc1cnc2nc(N)nc(N)c2n1)c1ccc(C(=O)N[C@@H](CCC(=O)O)C(=O)O)cc1 [methotrexate]
[1]
  CC50: > 50 µM
[2]
  IC50: > 50000 nM
[4]
  % inhibition in screen: 67.1%

## CC(C)=CCC[C@]1(C)C=Cc2c(O)c3c(c(CC=C(C)C)c2O1)O[C@]12C(=C[C@@H]4CC1C(C)(C)O[C@@]2(C/C=C(/C)C(N)=O)C4=O)C3=O [gambogic amide]
[1]
  CC50: 0.454 µM
[2]
  IC50: 1010 nM
[3]
  SI (CC50/IC50): 0.45
[4]
  % inhibition in screen: 100.0%

## CN(C)CCOC(c1ccccc1)c1ccccc1.Cn1c(=O)c2[nH]c(Cl)nc2n(C)c1=O [dramamine]
[5]
  CC50: > 50 µM
[3]
  IC50: > 50 µM
[4]
  % inhibition in screen: 57.8%

## C[C@H]1O[C@@H](O[C@H]2[C@@H](O)C[C@H](O[C@H]3[C@@H](O)C[C@H](O[C@H]4CC[C@@]5(C)[C@H](CC[C@@H]6[C@@H]5CC[C@]5(C)[C@@H](C7=CC(=O)OC7)CC[C@]65O)C4)O[C@@H]3C)O[C@@H]2C)C[C@H](O)[C@@H]1O [digitoxin]
[1]
  CC50: 0.031 µM
[2]
  IC50: 50 nM
[3]
  SI (CC50/IC50): 0.62
[4]
  % inhibition in screen: 92.5%

## Nc1ncnc2c1ncn2[C@@H]1O[C@H](CO)[C@@H](O)[C@@H]1O [vidarabine]
[1]
  CC50: > 50 µM
[2]
  IC50: > 50000 nM
[4]
  % inhibition in screen: 56.1%

## CC(=O)O[C@@H]1C[C@H]2C(C)(C)C(=O)C=C[C@]2(C)[C@H]2CC[C@@]3(C)[C@H](c4ccoc4)OC(=O)[C@H]4O[C@]43[C@@]21C [gedunin]
[1]
  CC50: 5.48 µM
[2]
  IC50: 803 nM
[6]
  reduction of virus replication (EBOV-GFP): 98%
[7]
  cell death (cytotoxicity): little cell death
[3]
  SI (CC50/IC50): 6.829
[4]
  % inhibition in screen: 72.9%

## CC1=CC(=O)c2c(O)cccc2C1=O [plumbagin]
[1]
  CC50: 0.756 µM
[2]
  IC50: 919 nM
[3]
  SI (CC50/IC50): 0.823
[4]
  % inhibition in screen: 98.3%

## Cc1ccc(C)c(OCCCC(C)(C)C(=O)O)c1 [gemfobrozil]
[5]
  CC50: > 50 µM
[3]
  IC50: > 50 µM
[4]
  % inhibition in screen: 62.1%

## COc1c(C)c2c(c(O)c1C/C=C(\C)CCC(=O)O)C(=O)OC2 [mycophenolic acid]
[1]
  CC50: > 50 µM
[2]
  IC50: 316 nM
[8]
  effect of guanosine addition on inhibition of minigenome activity: rescued minigenome activity at all concentrations
[6]
  reduction of virus replication (EBOV-GFP): 96%
[7]
  cell death (cytotoxicity): little cell death
[4]
  % inhibition in screen: 90.5%

## CC[C@H]1CN2CCc3cc(OC)c(OC)cc3[C@@H]2C[C@@H]1C[C@H]1NCCc2cc(OC)c(OC)cc21 [emetine]
[1]
  CC50: > 50 µM
[2]
  IC50: 1470 nM
[6]
  reduction of EBOV replication (EBOV-GFP): 99%
[7]
  cytotoxicity: cytotoxic at higher concentrations
[4]
  % inhibition in screen: 98.3%

From paper PMC4537067 (ACS infectious diseases, 2015)
